Measured values reported in the supplement of paper PMC13380429.

Assays:
A549-ACE2 [1] = assay: drug-induced phospholipidosis relative to tamoxifen; higher = more phospholipidosis
A549-ACE2 [2] = assay: phospholipidosis EC50; higher = less potent phospholipidosis inducer
U2OS [3] = assay: drug sensitivity score (DSS) for viability; higher = more toxic; extreme values may be limits of the assay; conditions: 72 h
HepG2 [4] = assay: as above; conditions: 72 h
Caco-2 [5] = assay: as above; conditions: 72 h
Vero E6 [6] = assay: as above; conditions: 72 h
Calu-3 [7] = assay: as above; conditions: 72 h
[8] = system: A549-ACE2 infected with SARS-CoV-2; assay: cell count relative to DMSO; higher = less toxic; conditions: 24 h
U2OS [9] = assay: relative viability EC50 (midpoint between 100% and the lowest measured viability); higher = less toxic; conditions: 72 h
HepG2 [10] = assay: as above; conditions: 72 h
Vero E6 [11] = assay: as above; conditions: 72 h
Calu-3 [12] = assay: as above; conditions: 72 h
[13] = system: A549-ACE2 infected with SARS-CoV-2; assay: SARS-CoV-2 infection rate relative to DMSO; higher = more infection; conditions: 24 h
U2OS [14] = assay: cell viability relative to DMSO; higher = less toxic; conditions: 72 h
HepG2 [15] = assay: as above; conditions: 72 h
Caco-2 [16] = assay: as above; conditions: 72 h
Vero E6 [17] = assay: as above; conditions: 72 h
Calu-3 [18] = assay: as above; conditions: 72 h
[19] = system: A549-ACE2 infected with SARS-CoV-2; assay: morphology score (similarity to uninfected cells); higher = more like uninfected cells; conditions: 24 h
Caco-2 [20] = assay: relative viability EC50 (midpoint between 100% and the lowest measured viability); higher = less toxic; conditions: 72 h

COc1ccc(NC(=O)c2ccc(-c3ccc(-c4noc(C)n4)cc3C)cc2)cc1OCCN(C)C
drug-induced phospholipidosis [%], A549-ACE2 [1]
Conditions | 0.3 µM | 0.833333 µM | 3.33333 µM | 6.66667 µM | 10 µM
24 h | 2.56 | 13.6 | 76.9 | 75.2 | 56
48 h | 4.9 | 6.68 | 68 | 79.2 | –
72 h | 5.85 | 5.56 | 57.7 | 86.2 | –

Conditions | SARS-CoV-2 infection rate [%] | cell count [%] | cell viability [%] | morphology score | phospholipidosis EC50 [µM]
A549-ACE2 [2], 24 h | – | – | – | – | 1
A549-ACE2 [2], 48 h | – | – | – | – | 2.13
A549-ACE2 [2], 72 h | – | – | – | – | 3.02
Caco-2 [16], 1 nM | – | – | 101 | – | –
Caco-2 [16], 10 nM | – | – | 102 | – | –
Caco-2 [16], 100 nM | – | – | 104 | – | –
Caco-2 [16], 1000 nM | – | – | 92.4 | – | –
Caco-2 [16], 10000 nM | – | – | 54 | – | –
Calu-3 [18], 1 nM | – | – | 101 | – | –
Calu-3 [18], 10 nM | – | – | 102 | – | –
Calu-3 [18], 100 nM | – | – | 105 | – | –
Calu-3 [18], 1000 nM | – | – | 92.5 | – | –
Calu-3 [18], 10000 nM | – | – | 11.2 | – | –
HepG2 [15], 1 nM | – | – | 121 | – | –
HepG2 [15], 10 nM | – | – | 95.5 | – | –
HepG2 [15], 100 nM | – | – | 109 | – | –
HepG2 [15], 1000 nM | – | – | 90.1 | – | –
HepG2 [15], 10000 nM | – | – | 6.6 | – | –
U2OS [14], 1 nM | – | – | 101 | – | –
U2OS [14], 10 nM | – | – | 105 | – | –
U2OS [14], 100 nM | – | – | 101 | – | –
U2OS [14], 1000 nM | – | – | 102 | – | –
U2OS [14], 10000 nM | – | – | 44.7 | – | –
Vero E6 [17], 1 nM | – | – | 98.1 | – | –
Vero E6 [17], 10 nM | – | – | 98 | – | –
Vero E6 [17], 100 nM | – | – | 96.7 | – | –
Vero E6 [17], 1000 nM | – | – | 93.1 | – | –
Vero E6 [17], 10000 nM | – | – | 20.1 | – | –
[8], 0.1 µM | – | 102 | – | – | –
[8], 0.3 µM | – | 99 | – | – | –
[8], 1 µM | – | 109 | – | – | –
[8], 3 µM | – | 126 | – | – | –
[13], 0.1 µM | 97 | – | – | – | –
[13], 0.3 µM | 95 | – | – | – | –
[13], 1 µM | 82 | – | – | – | –
[13], 3 µM | 26 | – | – | – | –
[19], 0.1 µM | – | – | – | -0.01 | –
[19], 0.3 µM | – | – | – | 0.09 | –
[19], 1 µM | – | – | – | 0.43 | –
[19], 3 µM | – | – | – | 0.77 | –

Conditions | drug sensitivity score | relative viability EC50 [µM]
Caco-2 [5] | 3.7 | –
Calu-3 [7] | 6.1 | –
Calu-3 [12] | – | 2.47
HepG2 [4] | 6.8 | –
HepG2 [10] | – | 2.29
U2OS [3] | 2.8 | –
U2OS [9] | – | 3.33
Vero E6 [6] | 5.5 | –
Vero E6 [11] | – | 2.45

NC(=O)c1noc([C@H](CCCC2CCCCC2)CC(=O)NO)n1
drug-induced phospholipidosis [%], A549-ACE2 [1]
Conditions | 0.3 µM | 0.833333 µM | 3.33333 µM | 6.66667 µM | 10 µM | 30 µM
24 h | 4.23 | 6.27 | 14.7 | 16.7 | 18.4 | 23.6
48 h | 4.52 | 5.1 | 16.8 | 23.1 | 24.9 | 32.6
72 h | 5.18 | 1.64 | 8.76 | 19.5 | 21 | –

Conditions | drug sensitivity score | relative viability EC50 [µM]
Caco-2 [5] | 1.2 | –
Caco-2 [20] | – | > 10
Calu-3 [7] | 0 | –
Calu-3 [12] | – | > 10
HepG2 [4] | 2.2 | –
U2OS [3] | 0.3 | –
U2OS [9] | – | > 10
Vero E6 [6] | 0 | –
Vero E6 [11] | – | > 10

Conditions | SARS-CoV-2 infection rate, [13] [%] | cell count, [8] [%] | cell viability, Caco-2 [16] [%] | cell viability, Calu-3 [18] [%] | cell viability, HepG2 [15] [%] | cell viability, U2OS [14] [%] | cell viability, Vero E6 [17] [%] | morphology score, [19]
1 nM | – | – | 97.2 | 106 | 102 | 96.4 | 95.2 | –
10 nM | – | – | 93 | 102 | 108 | 101 | 90.9 | –
100 nM | – | – | 96.9 | 93.8 | 109 | 101 | 93.1 | –
0.3 µM | 102 | 102 | – | – | – | – | – | -0.06
1000 nM | – | – | 88 | 110 | 89.6 | 97.4 | 91.4 | –
3 µM | 98 | 100 | – | – | – | – | – | 0
10 µM | 89 | 102 | – | – | – | – | – | 0.38
10000 nM | – | – | 79.6 | 98.7 | 74.8 | 86.7 | 97 | –
30 µM | 95 | 101 | – | – | – | – | – | 0.25
